The values below come from ChEMBL document CHEMBL4229350, “Antimicrobial activity and self-assembly behavior of antimicrobial peptide chensinin-1b with lipophilic alkyl tails” (Eur J Med Chem, 2018).

Data set [1] deals with Lipid bilayer. The data set is described as follows: Induction of membrane permeabilization in calcein loaded PG/CL large unilamellar vesicles assessed as calcein leakage at 3 uM after 10 mins by fluorescence assay relative to control.
For data set [2], the system named is Staphylococcus aureus. Nature of the data set: Antimicrobial activity against Staphylococcus aureus AS 1.72 after 18 hrs by micro dilution method. In kind it is functional. Particulars: AS 1.72, 18 h.
Data set [3] has as its system Lipid bilayer. The data set is described as follows: Induction of membrane permeabilization in calcein loaded PG/CL/PE large unilamellar vesicles assessed as calcein leakage at 3 uM after 10 mins by fluorescence assay relative to control.
The subject of data set [4] is Lipid bilayer. Nature of the data set: Induction of membrane permeabilization in calcein loaded PC/cholesterol large unilamellar vesicles assessed as calcein leakage at 50 uM after 10 mins by fluorescence assay relative to control.
Data set [5] deals with Lipid bilayer. The data set is described as follows: Induction of membrane permeabilization in calcein loaded LPS/PC/PG large unilamellar vesicles assessed as calcein leakage after 15 mins by fluorescence assay.
The subject of data set [6] is Lipid bilayer. Nature of the data set: Induction of membrane permeabilization in PG/CL large unilamellar vesicles assessed as blue shift at compound to lipid ratio of 60 by Tryptophan fluorescence spectroscopy.
The subject of data set [7] is U-937. Nature of the data set: Antiinflammatory activity in human U937 cells assessed as inhibition of LPS-induced IL-6 production at 6.25 uM after 24 hrs by ELISA relative to control. Format: functional. Particulars: U-937, 24 h. A general note: ELISA stands for enzyme-linked immunosorbent assay.
The test system of data set [8] is Lipid bilayer. The data set is described as follows: Induction of membrane permeabilization in calcein loaded LPS/PC/PG large unilamellar vesicles assessed as calcein leakage at 50 uM after 15 mins by fluorescence assay relative to control.
Data set [9] relates to U-937. Nature of the data set: Antiinflammatory activity in human U937 cells assessed as inhibition of LPS-induced IL-6 production after 24 hrs by ELISA. Format: functional, cell-based.
A further data set has as its system A-375. The data set is described as follows: Cytotoxicity against human A375 cells assessed as reduction in cell viability after 1 hr by MTT assay. Format: functional, cell-based. Particulars: A-375, 1 h.
The test system of the next data set is Pseudomonas aeruginosa. The data set is described as follows: Antimicrobial activity against Pseudomonas aeruginosa CGMCC 1.860 after 18 hrs by micro dilution method. Particulars: CGMCC 1.860, 18 h. In kind it is functional.
In data set [10] the test system is Lipid bilayer. The data set is described as follows: Induction of membrane permeabilization in PG/CL/PE large unilamellar vesicles assessed as blue shift at compound to lipid ratio of 10 by Tryptophan fluorescence spectroscopy.
Another data set has as its system Bacillus cereus. The data set is described as follows: Antimicrobial activity against Bacillus cereus AS 1.126 after 18 hrs by micro dilution method. Format: functional. Particulars: AS 1.126, 18 h.
In data set [11] the test system is Lipopolysaccharide (LPS). The data set is described as follows: Binding affinity to Escherichia coli 0111:B4 LPS assessed as equilibrium association constant by ITC method.
For data set [12], the system named is Staphylococcus aureus. Nature of the data set: Antimicrobial activity against Staphylococcus aureus AS 1.72 assessed as induction of bacterial cytoplasmic membrane depolarization at 2 times MIC after 4 mins by diSC3-5 dye-based fluorescence assay. In kind it is functional, organism-based.
The test system of data set [13] is Lipid bilayer. The data set is described as follows: Induction of membrane permeabilization in calcein loaded PG/CL large unilamellar vesicles assessed as calcein leakage at 6 uM after 15 mins by fluorescence assay relative to control.
The test system of data set [14] is Staphylococcus aureus. Nature of the data set: Antimicrobial activity against Staphylococcus aureus AS 1.72 assessed as induction of outer membrane permeabilization by measuring NPN uptake by fluorescence assay. Format: functional, organism-based.
The next data set relates to Lactococcus lactis. The data set is described as follows: Antimicrobial activity against Streptococcus lactis AS 1.1690 after 18 hrs by micro dilution method. Format: functional. Particulars: AS 1.1690, 18 h.
The nature of data set [15]: Hemolytic activity against human erythrocytes after 1 hr. Format: ADME, cell-based, Erythrocyte.
Data set [16] in a line: Cytotoxicity against human U937 cells assessed as cell viability at 3.13 to 12.6 uM after 1 hr by MTT assay relative to control. In kind it is cell-based, U-937. Particulars: read-out: Activity. On the technique in general: Formazan colour is commonly taken as a measure of viable cells.
Data set [17] has as its system U-937. Nature of the data set: Antiinflammatory activity in human U937 cells assessed as inhibition of LPS-induced TNF-alpha production at 6.25 uM after 24 hrs by ELISA relative to control. In kind it is functional. Particulars: U-937, 24 h.
In another data set the test system is MCF7. The data set is described as follows: Cytotoxicity against human MCF7 cells assessed as reduction in cell viability after 1 hr by MTT assay. In kind it is functional, cell-based. Particulars: MCF7, 1 h.
Another data set relates to HeLa. The data set is described as follows: Cytotoxicity against human HeLa cells assessed as reduction in cell viability after 1 hr by MTT assay. In kind it is functional, cell-based.
Data set [18] relates to Lipopolysaccharide (LPS). Nature of the data set: Induction of LPS micelles disaggergation assessed as small particle distribution at 2 uM by DLS method.
The test system of a further data set is Enterococcus faecium. The data set is described as follows: Antimicrobial activity against Enterococcus faecium CGMCC 1.2334 after 18 hrs by micro dilution method. Format: functional. Particulars: CGMCC 1.2334, 18 h.
In data set [19] the test system is U-937. Nature of the data set: Antiinflammatory activity in human U937 cells assessed as inhibition of LPS-induced TNF-alpha production at 12.6 uM after 24 hrs by ELISA relative to control. Format: functional. Particulars: U-937, 24 h.
A short description of data set [20]: Self-assembly property assessed as diameter of monodispersed micelles at 1 mg/ml at pH 7 by TEM analysis. Format: physicochemical.
Data set [21] concerns U-937. Nature of the data set: Antiinflammatory activity in human U937 cells assessed as inhibition of LPS-induced TNF-alpha production after 24 hrs by ELISA. In kind it is functional, cell-based.
For data set [22], the system named is Escherichia coli. Nature of the data set: Antimicrobial activity against Escherichia coli AS 1.349 after 18 hrs by micro dilution method. Particulars: AS 1.349, 18 h. Format: functional.
Data set [23] has as its system Escherichia coli. Nature of the data set: Antimicrobial activity against Escherichia coli AS 1.349 assessed as induction of bacterial cytoplasmic membrane depolarization at 2 times MIC after 5 mins by diSC3-5 dye-based fluorescence assay. In kind it is functional, organism-based.
In data set [24] the test system is U-937. The data set is described as follows: Antiinflammatory activity in human U937 cells assessed as inhibition of LPS-induced IL-6 production at 3.13 uM after 24 hrs by ELISA relative to control. Particulars: U-937, 24 h. Format: functional.
In data set [25] the test system is U-937. Nature of the data set: Antiinflammatory activity in human U937 cells assessed as inhibition of LPS-induced TNF-alpha production at 3.13 uM after 24 hrs by ELISA relative to control. Format: functional. Particulars: U-937, 24 h.
Data set [26] concerns Lipopolysaccharide (LPS). The data set is described as follows: Binding affinity to Escherichia coli 0111:B4 LPS by ITC method.
Data set [27] has as its system Lipopolysaccharide (LPS). The data set is described as follows: Induction of LPS micelles disaggergation assessed as abundant particle size formation at 2 uM by DLS method.
Data set [28] has as its system Lipid bilayer. The data set is described as follows: Induction of membrane permeabilization in PC/cholesterol large unilamellar vesicles assessed as blue shift by Tryptophan fluorescence spectroscopy.
The test system of data set [29] is U-937. Nature of the data set: Antiinflammatory activity in human U937 cells assessed as inhibition of LPS-induced IL-6 production at 12.6 uM after 24 hrs by ELISA relative to control. In kind it is functional. Particulars: U-937, 24 h.
The test system of data set [30] is Escherichia coli. Nature of the data set: Antimicrobial activity against Escherichia coli AS 1.349 assessed as induction of outer membrane permeabilization by measuring NPN uptake by fluorescence assay. Format: functional, organism-based.
The nature of data set [31]: Self-assembly property assessed as diameter of monodispersed micelles at 1 mg/ml at pH 7 readjusted from pH 2 by TEM analysis. In kind it is physicochemical.
In data set [32] the test system is Lipid bilayer. The data set is described as follows: Induction of membrane permeabilization in calcein loaded PG/CL/PE large unilamellar vesicles assessed as calcein leakage at 6 uM after 15 mins by fluorescence assay relative to control.
The subject of the next data set is Enterococcus faecalis. The data set is described as follows: Antimicrobial activity against Enterococcus faecalis CGMCC 1.595 after 18 hrs by micro dilution method. Particulars: CGMCC 1.595, 18 h. Format: functional.
Data set [33] concerns Escherichia coli. Nature of the data set: Antimicrobial activity against Escherichia coli AS 1.349 assessed as induction of outer membrane permeabilization by measuring NPN uptake up to 50 uM by fluorescence assay. Format: functional, organism-based.
The subject of data set [34] is Staphylococcus aureus. Nature of the data set: Antimicrobial activity against Staphylococcus aureus AS 1.72 assessed as induction of outer membrane permeabilization by measuring NPN uptake up to 50 uM by fluorescence assay. Format: functional, organism-based.

Values after ≈ are worked out from the molar mass of the structure shown. Active and inactive are the calls of the source. No cut-off for these calls is given here. Peptide text beside a SMILES is read from it. * marks the point of attachment. Octanoyl = CCCCCCCC(=O)*

What is called MIC is the lowest concentration that inhibits growth of the organism. Lower therefore signals a more susceptible organism. The inhibition is the drop in the measured response relative to a control, in per cent. The term IC50 denotes the concentration that gives 50% inhibition. The HC50 is the concentration that lyses half of the red blood cells. As usually defined, the Kd is the equilibrium constant for the complex coming apart. For the compound `CCCCCCCC(=O)N[C@@H](CO)C(=O)N[C@@H](CCCCN)C(=O)N[C@H](C(=O)N[C@@H](Cc1c[nH]c2ccccc12)C(=O)N[C@@H](CCCNC(=N)N)C(=O)N[C@@H](Cc1cnc[nH]1)C(=O)N[C@@H](Cc1c[nH]c2ccccc12)C(=O)N[C@@H](CCCNC(=N)N)C(=O)N[C@@H](CCCNC(=N)N)C(=O)N[C@@H](Cc1ccccc1)C(=O)N[C@@H](Cc1c[nH]c2ccccc12)C(=O)N[C@@H](Cc1cnc[nH]1)C(=O)N[C@@H](CCCNC(=N)N)C(=O)N[C@@H](C)C(=O)N[C@@H](Cc1cnc[nH]1)C(=O)N[C@@H](CCCNC(=N)N)C(=O)N[C@@H](CCCCN)C(=O)N[C@@H](CC(C)C)C(=O)O)C(C)C` (Octanoyl-SKVWRHWRRFWHRAHRKL-OH), the Activity was 88% in the data set with Lipid bilayer [1]; 66% in the data set with Lipid bilayer [3]; 20% in the data set on Lipid bilayer [4]; “Dose-dependent effect” in the data set with Lipid bilayer [5]; 24 nm in the data set on Lipid bilayer [6]; 73% in the data set with Lipid bilayer [8]. For the same compound, the Activity in the data set with Lipid bilayer [10] is 16 nm; in the data set on Lipid bilayer [13] it was 95%; with Staphylococcus aureus [14] it was “Dose-dependent effect”; with Lipopolysaccharide (LPS) [18], 400 nm; in data set [20], 80 nm; in the data set on Lipopolysaccharide (LPS) [27], 68 nm. Further, the Activity result in the data set on Escherichia coli [30] is “Dose-dependent effect”; in [31], 7 nm; in the data set on Lipid bilayer [32], 92%. Further, the MIC in the data set with Staphylococcus aureus [2] was 3.13 µM (≈ 8.35 µg/mL); with Pseudomonas aeruginosa it was 1.56 µM (≈ 4.16 µg/mL); against Bacillus cereus, 1.56 µM (≈ 4.16 µg/mL); in the data set with Lactococcus lactis it was 1.56 µM (≈ 4.16 µg/mL); against Enterococcus faecium, 1.56 µM (≈ 4.16 µg/mL); against Escherichia coli [22], 3.13 µM (≈ 8.35 µg/mL). Also, in the data set with Enterococcus faecalis, inhibition of growth (MIC) required 1.56 µM (≈ 4.16 µg/mL). For the same compound, the inhibition at 6.25 µM with U-937 [7] came to 8%; in the data set on U-937 [17], 28%. In addition, the inhibition result in the data set on U-937 [9] and in the data set with U-937 [21] was “Dose-dependent effect” in each case. Further, the IC50 with A-375 was 51 µM; with MCF7, 34.9 µM; in the data set with HeLa, 23.9 µM. In addition, in the data set on Lipopolysaccharide (LPS) [11], the Ka is 92.3 mM⁻¹. Besides, the result in the data set on Staphylococcus aureus [12] and in the data set on Escherichia coli [23] was Active. In [15], this compound returned an HC50 at 1 h of over 500 µM. For the same compound, the viability at 1 h, up to 12.6 µM in data set [16] came out at 80%. In addition, the figures for the inhibition at 12.6 µM in the data set with U-937 [19] and in the data set on U-937 [29] were 30% and 24%, respectively. Besides, the inhibition at 3.13 µM with U-937 [24] came to 7%; in the data set with U-937 [25], 24%. Moreover, the Kd in the data set on Lipopolysaccharide (LPS) [26] is 10.8 µM. Besides, in the data set with Lipid bilayer [28], the result was inactive.
As for GENTAMICIN, the result with Escherichia coli [33] and with Staphylococcus aureus [34] was Active.
